In US20220218678A1, “USE OF 1-PHENYL-2-PYRIDINYL ALKYL ALCOHOL DERIVATIVES FOR TREATING CYSTIC FIBROSIS” (CHIESI FARMACEUTICI S.p.A., priority 2017, published 2022):

Tests used:
[1] = biological target: T1, ΔF508 CFTR (Homo sapiens, UniProt P13569, DEL508-508); test: HS-YFP assay, CFTR potentiator activity in CFBE41o− cells; type: cell-based; conditions: 10 minutes exposure, following CFTR correction by VRT809 (5 μM, 24 h)
T1 construct: cells expressing endogenous ΔF508-CFTR; endogenous in cells; host or cells: CFBE41o− human CF bronchial epithelial cell line (gift from D. C. Gruenert), homozygous ΔF508
Description: The CF human bronchial epithelial cell line (CFBE41o−), homozygous for the ΔF508 mutation of the CFTR protein (Ehrhard et al., 2006, Cell Tissue Res. Vol. 323, p. 405-415; kind gift from D. C. Gruenert, California Pacific Medical Center Research Institute, San Francisco, Calif., USA) and the human bronchial epithelial cell line 16HBE14o−, wildtype (wt) for the CFTR protein (kindly provided by P. Davis, Case Western Reserve University School of Medicine, Cleveland, Ohio, USA) were maintained in EMEM (Lonza) supplemented with 10% FBS and 1% Glutamax (Sigma). […]
The CFTR activity in epithelial cells was evaluated by Yellow Fluorescence Protein (YFP) with a protocol modified from the method published by Averna et al. (PLoS One, 2013, vol. 8, e66089). […]
The potential effect of different agents on the activity of CFTR in CFBE41o− cells was analysed by the HS-YFP assay, combining a short exposure (10 minutes) with agents as follows: CHF6001, Roflumilast or VRT 770 (5 μM), alone or in combination, with a 24 h pre-treatment with the CFTR corrector VRT809 (5 μM). […]

[2] = diarrhea, weight loss, nausea, headache, insomnia and others; cited from earlier work

T1 sequence (P13569 with tags, fused parts or gaps DEL508-508): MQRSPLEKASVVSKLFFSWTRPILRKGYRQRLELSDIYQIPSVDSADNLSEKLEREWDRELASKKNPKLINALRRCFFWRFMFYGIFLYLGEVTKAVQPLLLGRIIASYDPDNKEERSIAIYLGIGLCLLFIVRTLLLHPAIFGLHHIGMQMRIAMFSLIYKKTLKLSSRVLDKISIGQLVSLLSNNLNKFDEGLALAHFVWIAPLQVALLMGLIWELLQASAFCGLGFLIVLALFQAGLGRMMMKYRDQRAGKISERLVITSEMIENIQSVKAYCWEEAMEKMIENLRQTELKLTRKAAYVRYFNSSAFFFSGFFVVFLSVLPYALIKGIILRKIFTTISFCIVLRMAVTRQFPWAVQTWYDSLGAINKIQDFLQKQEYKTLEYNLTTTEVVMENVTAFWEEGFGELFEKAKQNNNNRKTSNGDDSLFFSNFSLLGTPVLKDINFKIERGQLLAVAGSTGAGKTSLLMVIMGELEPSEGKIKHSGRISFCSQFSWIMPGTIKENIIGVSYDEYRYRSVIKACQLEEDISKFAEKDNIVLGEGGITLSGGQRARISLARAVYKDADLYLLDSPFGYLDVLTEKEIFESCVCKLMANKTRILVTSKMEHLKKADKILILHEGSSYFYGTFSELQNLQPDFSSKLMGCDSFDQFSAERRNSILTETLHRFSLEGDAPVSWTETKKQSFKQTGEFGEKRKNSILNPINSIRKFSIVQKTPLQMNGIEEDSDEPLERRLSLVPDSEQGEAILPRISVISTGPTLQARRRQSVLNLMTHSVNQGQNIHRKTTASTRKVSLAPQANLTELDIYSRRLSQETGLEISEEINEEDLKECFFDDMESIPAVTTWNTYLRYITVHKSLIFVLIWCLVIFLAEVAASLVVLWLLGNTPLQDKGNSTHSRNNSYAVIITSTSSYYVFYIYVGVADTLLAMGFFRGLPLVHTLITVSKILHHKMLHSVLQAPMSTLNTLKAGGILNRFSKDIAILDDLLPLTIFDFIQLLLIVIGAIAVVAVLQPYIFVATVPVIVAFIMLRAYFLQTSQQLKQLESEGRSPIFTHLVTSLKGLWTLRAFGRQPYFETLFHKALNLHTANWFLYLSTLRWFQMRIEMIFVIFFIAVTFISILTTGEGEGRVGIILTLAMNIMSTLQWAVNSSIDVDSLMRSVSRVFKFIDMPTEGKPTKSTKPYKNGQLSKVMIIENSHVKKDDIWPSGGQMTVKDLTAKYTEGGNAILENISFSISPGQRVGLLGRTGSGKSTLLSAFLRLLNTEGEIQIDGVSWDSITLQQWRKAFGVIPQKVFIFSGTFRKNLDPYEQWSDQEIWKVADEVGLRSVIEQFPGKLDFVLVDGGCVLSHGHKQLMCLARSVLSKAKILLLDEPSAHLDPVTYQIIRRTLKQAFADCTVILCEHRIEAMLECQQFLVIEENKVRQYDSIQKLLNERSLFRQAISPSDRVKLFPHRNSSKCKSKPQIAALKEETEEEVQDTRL

In the case of CS(=O)(=O)Nc1ccc(C(=O)OC(Cc2c(Cl)c[n+]([O-])cc2Cl)c2ccc(OC(F)F)c(OCC3CC3)c2)cc1OCC1CC1 (centres unmarked) [CHF6001, 3-Cyclopropylmethoxy-4-methanesulfonylamino-benzoic acid 1-(3-cyclopropylmethoxy-4-difluoromethoxy-phenyl)-2-(3,5-dichloro-1-oxy-pyridin-4-yl)-ethyl ester], the “CFTR activity (delta fluorescence un-stimulated versus stimulated cells)” value [1] is reported as “comparable to the reference compound VRT 770”.
For O=C(Nc1c(Cl)cncc1Cl)c1ccc(OC(F)F)c(OCC2CC2)c1 [Roflumilast, 3-cyclo-propylmethoxy-4-difluoromethoxy-N-[3,5-di-chloropyrid-4-yl]-benzamide], the “frequency of common adverse effects in subjects” value [2] is listed as 1-10%.
